The source made the active and inactive calls. No cut-off for these calls is given here.
What was measured:
[1] = molecular target: Proto-oncogene tyrosine-protein kinase Src (Homo sapiens) (UniProt P12931); assay: Inhibition of SRC using biotinylated HNRNPK as substrate at 0.2 to 6 uM by blotting method
[2] = molecular target: T1, Receptor tyrosine-protein kinase erbB-2 (Homo sapiens, UniProt P04626); assay: Inhibition of truncated soluble ERBB2 expressed in human MCF7 cell lysate at 1 to 10 uM after mCherry fluorescence assay pretreated with canertinib before lysis; assay type: cell-based
[3] = molecular target: T1, Receptor tyrosine-protein kinase erbB-2; assay: Inhibition of ERBB2 autophosphorylation Tyr 1139 residue in human BT474 cells at 2 to 14 uM after 12 hrs by Western blotting
[4] = molecular target: T1, Receptor tyrosine-protein kinase erbB-2; assay: Inhibition of truncated soluble ERBB2 expressed in human MCF7 cell lysate at 1 to 10 uM after mCherry fluorescence assay; assay type: cell-free
[5] = molecular target: T1, Receptor tyrosine-protein kinase erbB-2; assay: Binding affinity to full-length/His-tagged ERBB2 UV-vis emission spectroscopy
[6] = molecular target: Proto-oncogene tyrosine-protein kinase Src (Homo sapiens) (UniProt P12931); assay: Inhibition of SRC using biotinylated HNRNPK as substrate up to 6 uM by blotting method
[7] = molecular target: T1, Receptor tyrosine-protein kinase erbB-2; assay: Inhibition of full-length/His-tagged ERBB2 overexpressed in human MCF7 cells assessed as inhibition of AKT phosphorylation at 0.2 to 6 uM after 12 hrs by Western blot analysis; assay type: cell-based

T1 sequence (P04626 whole entry, the tested form may be a part): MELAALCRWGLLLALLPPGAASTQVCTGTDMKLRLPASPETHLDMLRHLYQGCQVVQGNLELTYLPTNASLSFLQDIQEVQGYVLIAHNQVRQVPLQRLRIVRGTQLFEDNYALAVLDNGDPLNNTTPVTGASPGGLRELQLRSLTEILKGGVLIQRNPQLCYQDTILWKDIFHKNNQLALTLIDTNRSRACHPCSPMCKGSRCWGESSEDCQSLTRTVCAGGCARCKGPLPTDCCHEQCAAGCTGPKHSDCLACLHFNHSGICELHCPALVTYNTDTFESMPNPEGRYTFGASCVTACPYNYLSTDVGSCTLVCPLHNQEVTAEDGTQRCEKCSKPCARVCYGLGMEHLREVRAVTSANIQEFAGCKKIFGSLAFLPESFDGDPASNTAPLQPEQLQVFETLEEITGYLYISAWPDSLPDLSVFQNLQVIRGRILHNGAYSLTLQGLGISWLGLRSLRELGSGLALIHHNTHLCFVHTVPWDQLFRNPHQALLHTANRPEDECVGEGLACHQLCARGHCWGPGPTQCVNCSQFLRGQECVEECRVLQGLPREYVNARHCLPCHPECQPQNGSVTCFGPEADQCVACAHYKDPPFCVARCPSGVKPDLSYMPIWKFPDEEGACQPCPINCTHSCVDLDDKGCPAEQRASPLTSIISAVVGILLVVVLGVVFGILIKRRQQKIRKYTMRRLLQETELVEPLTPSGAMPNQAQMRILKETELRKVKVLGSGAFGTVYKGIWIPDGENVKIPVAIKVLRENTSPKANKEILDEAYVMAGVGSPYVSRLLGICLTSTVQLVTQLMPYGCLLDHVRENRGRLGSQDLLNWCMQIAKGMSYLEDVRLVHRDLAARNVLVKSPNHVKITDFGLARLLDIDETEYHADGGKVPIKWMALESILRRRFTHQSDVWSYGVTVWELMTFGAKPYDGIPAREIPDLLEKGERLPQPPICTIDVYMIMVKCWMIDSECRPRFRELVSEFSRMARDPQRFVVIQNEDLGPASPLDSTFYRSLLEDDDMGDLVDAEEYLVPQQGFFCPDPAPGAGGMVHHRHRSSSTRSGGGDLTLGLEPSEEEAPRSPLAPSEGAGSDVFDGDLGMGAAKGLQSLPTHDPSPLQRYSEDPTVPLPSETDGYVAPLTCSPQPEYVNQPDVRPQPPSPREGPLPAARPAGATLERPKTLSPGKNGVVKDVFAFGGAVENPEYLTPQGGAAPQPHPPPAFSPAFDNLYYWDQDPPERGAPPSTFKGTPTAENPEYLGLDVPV
Proto-oncogene tyrosine-protein kinase Src (Homo sapiens), sequence (P12931 2-536 limits assumed): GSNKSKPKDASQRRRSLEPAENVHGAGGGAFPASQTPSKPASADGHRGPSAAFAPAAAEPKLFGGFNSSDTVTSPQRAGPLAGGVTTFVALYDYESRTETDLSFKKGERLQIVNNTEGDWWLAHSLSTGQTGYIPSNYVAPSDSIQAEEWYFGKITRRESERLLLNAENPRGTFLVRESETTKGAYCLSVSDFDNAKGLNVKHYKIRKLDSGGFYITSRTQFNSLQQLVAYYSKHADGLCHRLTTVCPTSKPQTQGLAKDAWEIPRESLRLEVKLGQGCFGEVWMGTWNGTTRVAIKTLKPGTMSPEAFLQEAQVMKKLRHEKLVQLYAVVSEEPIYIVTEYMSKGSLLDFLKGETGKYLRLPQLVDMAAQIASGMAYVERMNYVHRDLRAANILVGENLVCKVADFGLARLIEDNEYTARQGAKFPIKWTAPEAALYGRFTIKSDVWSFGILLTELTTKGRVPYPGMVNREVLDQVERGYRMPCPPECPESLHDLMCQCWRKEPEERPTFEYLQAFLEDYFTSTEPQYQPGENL

Row | Compound | inhibition [1] | inhibition [2] | Ki [3] [µM] | inhibition [4] | Kd [5] [nM] | inhibition [6] | inhibition [7]
1 | Cc1ccc(-c2nn(C(C)(C)C)c3ncnc(N)c23)cc1 | Active | – | – | – | – | – | –
2 | CN(C)c1ccc(/C=C/c2ccc3ncnc(NCc4ccccc4)c3c2)cc1 | – | inactive | 3.1 | Active | 2900 | inactive | inactive

— ChEMBL document CHEMBL2069257, “A fluorescent reporter of ATP binding-competent receptor kinases” (Bioorg Med Chem Lett, 2012)
